Experimental data as given in patent US10144742B2 (Millennium Pharmaceuticals, Inc., priority 2014, dated 2018).
Like-named read-outs stand apart in the source and are kept apart here.

Tests used:
PC3 cells = assay: PC3 growth inhibition (Cell-titer glo, 72 hours); assay type: cell-based; conditions: Homo sapiens, PC-3, PC3 cells, 72 hours, Cell-titer glo, read-out: Percent Inhibition (PC3 growth inhibition); for inhibition at 1 µM: compound concentration 1 μM; for inhibition at 1.667 µM: compound concentration 1.667 μM
How it was run: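 PC3 cells in RPMI1640 seeded overnight at 37 °C, 5% CO2, then exposed to compound diluted in AIM serum-free medium for 72 h. Viability by CellTiter-Glo luminescence vs DMSO controls; single-concentration % remaining viability (1 μM or 1.667 μM), or GI50/LD50 from curves.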

hNAMPT protein = hNAMPT protein (Homo sapiens (Human), UniProt P43490); assay: NAMPT enzyme assay (TR-FRET/HTRF, BodiPY ligand, anti 6His-Tb); assay type: binding; conditions: for IC50: read-out: IC50; for inhibition at 1 µM: read-out: Percent Inhibition
How it was run: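 TR-FRET binding assay in which His-tagged human NAMPT with anti-6His-Tb is displaced by compound from a BodiPY ligand, incubated 1 h at rt in the dark. Excitation was at 320 nm, with the 520/486 nm emission ratio read. IC50 was fitted from inhibition relative to DMSO controls.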

[1] = NAMPT inhibition at compound concentration 1 μM
[2] = NAMPT inhibition, IC50 range class

Sequence of hNAMPT protein (P43490 whole entry): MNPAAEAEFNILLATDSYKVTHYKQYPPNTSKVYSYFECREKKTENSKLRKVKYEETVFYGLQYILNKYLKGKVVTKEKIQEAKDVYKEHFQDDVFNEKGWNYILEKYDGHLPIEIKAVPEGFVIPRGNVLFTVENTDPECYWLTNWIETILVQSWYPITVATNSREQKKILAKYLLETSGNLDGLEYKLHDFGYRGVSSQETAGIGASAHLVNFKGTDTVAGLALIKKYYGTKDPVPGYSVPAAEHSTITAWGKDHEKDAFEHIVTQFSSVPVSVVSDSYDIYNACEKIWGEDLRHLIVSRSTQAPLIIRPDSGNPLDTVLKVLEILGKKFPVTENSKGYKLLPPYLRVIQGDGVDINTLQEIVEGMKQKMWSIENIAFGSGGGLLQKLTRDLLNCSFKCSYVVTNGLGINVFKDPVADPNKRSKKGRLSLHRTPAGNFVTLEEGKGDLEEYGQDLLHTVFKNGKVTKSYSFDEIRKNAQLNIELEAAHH

O=C(NCCCn1ccnc1)c1ccc2nc(N3CCC(O)CC3)c(-c3ccccc3)nc2c1 [Compound I-105, 2-(4-hydroxypiperidin-1-yl)-N-[3-(1H-imidazol-1-yl)propyl]-3-phenylquinoxaline-6-carboxamide]
inhibition at 1 µM (PC3 cells): -7% | IC50 (hNAMPT protein; NAMPT IC50 range class): < 100 nM | inhibition at 1 µM (hNAMPT protein; compound concentration 1 μM): 92%

Cn1cc2c(n1)OCCN(C(=O)c1ccc3nc(-c4ccc(F)cc4)c(-c4ccc(F)cc4)nc3c1)C2 [Compound I-68, [2,3-bis(4-fluorophenyl)quinoxalin-6-yl](2-methyl-2,4,6,7-tetrahydro-5H-pyrazolo[4,3-f][1,4]oxazepin-5-yl)methanone]
inhibition at 1 µM (PC3 cells): 101% | IC50 (hNAMPT protein; NAMPT IC50 range class): 2000 to 10000 nM | inhibition at 1 µM (hNAMPT protein; compound concentration 1 μM): 16%

O=C(NCCCc1ncc[nH]1)c1ccc2nc(N3CCCCC3)c(-c3ccc(F)cc3)nc2c1 [Compound I-232, 3-(4-fluorophenyl)-N-[3-(1H-imidazol-2-yl)propyl]-2-(piperidin-1-yl)quinoxaline-6-carboxamide]
inhibition at 1.667 µM (PC3 cells): 2% | IC50 (hNAMPT protein; NAMPT IC50 range class): < 100 nM | inhibition at 1 µM (hNAMPT protein; compound concentration 1 μM): > 99%

COCC(COC)Oc1nc2ccc(C(=O)NCCCc3ncc[nH]3)cc2nc1-c1ccc(F)cc1 [Compound I-411, 2-[(1,3-dimethoxypropan-2-yl)oxy]-3-(4-fluorophenyl)-N-[3-(1H-imidazol-2-yl)propyl]quinoxaline-6-carboxamide]
inhibition at 1.667 µM (PC3 cells): 2% | inhibition at 1 µM (hNAMPT protein; [1]): 97% | IC50 (hNAMPT protein; [2]): 100 to 500 nM

CCOc1cccc(-c2nc3cc(C(=O)NCCCc4ncc[nH]4)ccc3nc2-c2ccc(F)cc2)c1 [Compound I-447, 3-(3-ethoxyphenyl)-2-(4-fluorophenyl)-N-[3-(1H-imidazol-2-yl)propyl]quinoxaline-6-carboxamide]
inhibition at 1.667 µM (PC3 cells): 2% | inhibition at 1 µM (hNAMPT protein; [1]): 99% | IC50 (hNAMPT protein; [2]): < 100 nM

CN1CC=C(c2nc3cc(C(=O)NCCCn4ccnc4)ccc3nc2-c2ccccc2)CC1 [Compound I-3, N-[3-(1H-imidazol-1-yl)propyl]-3-(1-methyl-1,2,3,6-tetrahydropyridin-4-yl)-2-phenylquinoxaline-6-carboxamide]
inhibition at 1 µM (PC3 cells): 39% | IC50 (hNAMPT protein; NAMPT IC50 range class): 2000 to 10000 nM | inhibition at 1 µM (hNAMPT protein; compound concentration 1 μM): 9%

C[C@@H]1CN(c2nc3ccc(C(=O)NCCCn4ccnc4)cc3nc2-c2ccccc2)C[C@H](C)O1 [Compound I-115, cis-2-[(2R,6S)-2,6-dimethylmorpholin-4-yl]-N-[3-(1H-imidazol-1-yl)propyl]-3-phenylquinoxaline-6-carboxamide]
inhibition at 1 µM (PC3 cells): -8% | IC50 (hNAMPT protein; NAMPT IC50 range class): < 100 nM | inhibition at 1 µM (hNAMPT protein; compound concentration 1 μM): 100%

O=C(NCCCc1ncc[nH]1)c1ccc2nc(N3CCCC3)c(-c3ccc(F)cc3)nc2c1 [Compound I-465, 3-(4-fluorophenyl)-N-[3-(1H-imidazol-2-yl)propyl]-2-(pyrrolidin-1-yl)quinoxaline-6-carboxamide]
inhibition at 1.667 µM (PC3 cells): 2% | inhibition at 1 µM (hNAMPT protein; [1]): 98% | IC50 (hNAMPT protein; [2]): < 100 nM

COC1CCN(c2nc3ccc(C(=O)NCCCc4ncc[nH]4)cc3nc2-c2ccc(F)cc2)CC1 [Compound I-78, 3-(4-fluorophenyl)-N-[3-(1H-imidazol-2-yl)propyl]-2-(4-methoxypiperidin-1-yl)quinoxaline-6-carboxamide]
inhibition at 1.667 µM (PC3 cells): 2% | IC50 (hNAMPT protein; NAMPT IC50 range class): < 100 nM | inhibition at 1 µM (hNAMPT protein; compound concentration 1 μM): > 99%

O=C(NCCCn1ccnc1)c1ccc2nc(N3CCC(n4c(=O)[nH]c5ccccc54)CC3)c(-c3ccccc3)nc2c1 [Compound I-280, N-[3-(1H-imidazol-1-yl)propyl]-2-[4-(2-oxo-2,3-dihydro-1H-benzimidazol-1-yl)piperidin-1-yl]-3-phenylquinoxaline-6-carboxamide]
inhibition at 1 µM (PC3 cells): -6% | IC50 (hNAMPT protein; NAMPT IC50 range class): 100 to 500 nM | inhibition at 1 µM (hNAMPT protein; compound concentration 1 μM): 83%

CC(C)Oc1nc2ccc(C(=O)NCc3ccc4nccn4c3)cc2nc1-c1ccc(Cl)s1 [Compound I-403, 3-(5-chloro-2-thienyl)-N-(imidazo[1,2-a]pyridin-6-ylmethyl)-2-isopropoxyquinoxaline-6-carboxamide]
inhibition at 1.667 µM (PC3 cells): 0% | inhibition at 1 µM (hNAMPT protein; [1]): 89% | IC50 (hNAMPT protein; [2]): 100 to 500 nM

O=C(NCCCc1ncc[nH]1)c1ccc2nc(OCC3CCCO3)c(-c3ccc(F)cc3)nc2c1 (stereo not drawn) [Compound I-438, 3-(4-fluorophenyl)-N-[3-(1H-imidazol-2-yl)propyl]-2-(tetrahydrofuran-2-ylmethoxy)quinoxaline-6-carboxamide]
inhibition at 1.667 µM (PC3 cells): 2% | inhibition at 1 µM (hNAMPT protein; [1]): 99% | IC50 (hNAMPT protein; [2]): < 100 nM

COc1ccc(-c2nc3ccc(C(=O)NCCCn4ccnc4)cc3nc2-c2ccccc2)cc1 [Compound I-99, N-[3-(1H-imidazol-1-yl)propyl]-2-(4-methoxyphenyl)-3-phenylquinoxaline-6-carboxamide]
inhibition at 1 µM (PC3 cells): -8% | IC50 (hNAMPT protein; NAMPT IC50 range class): 100 to 500 nM | inhibition at 1 µM (hNAMPT protein; compound concentration 1 μM): 75%

O=C(NCCCc1ncc[nH]1)c1ccc2nc(OCC3CCOC3)c(-c3ccc(F)cc3)nc2c1 (stereo not drawn) [Compound I-379, 3-(4-fluorophenyl)-N-[3-(1H-imidazol-2-yl)propyl]-2-(tetrahydrofuran-3-ylmethoxy)quinoxaline-6-carboxamide]
inhibition at 1.667 µM (PC3 cells): 2% | IC50 (hNAMPT protein; NAMPT IC50 range class): < 100 nM | inhibition at 1 µM (hNAMPT protein; compound concentration 1 μM): 100%

CC1(C)CN(c2nc3ccc(C(=O)NCCCn4ccnc4)cc3nc2-c2ccccc2)CCO1 [Compound I-31, 2-(2,2-dimethylmorpholin-4-yl)-N-[3-(1H-imidazol-1-yl)propyl]-3-phenylquinoxaline-6-carboxamide]
inhibition at 1 µM (PC3 cells): -7% | IC50 (hNAMPT protein; NAMPT IC50 range class): < 100 nM | inhibition at 1 µM (hNAMPT protein; compound concentration 1 μM): 89%

O=C(NCCCc1ncc[nH]1)c1ccc2nc(OC3CCOCC3)c(-c3ccc(Cl)cc3)nc2c1 [Compound I-111, 3-(4-chlorophenyl)-N-[3-(1H-imidazol-2-yl)propyl]-2-(tetrahydro-2H-pyran-4-yloxy)quinoxaline-6-carboxamide]
inhibition at 1.667 µM (PC3 cells): 2% | IC50 (hNAMPT protein; NAMPT IC50 range class): < 100 nM | inhibition at 1 µM (hNAMPT protein; compound concentration 1 μM): 99%

O=C(NCCCn1ccnc1)c1ccc2nc(N3CCC4(CC3)Cc3ccccc3O4)c(-c3ccccc3)nc2c1 [Compound I-268, N-[3-(1H-imidazol-1-yl)propyl]-3-phenyl-2-(1′H,3H-spiro[1-benzofuran-2,4′-piperidin]-1′-yl)quinoxaline-6-carboxamide]
inhibition at 1 µM (PC3 cells): -6% | IC50 (hNAMPT protein; NAMPT IC50 range class): 1000 to 2000 nM | inhibition at 1 µM (hNAMPT protein; compound concentration 1 μM): 63%

O=C(NCCn1cncn1)c1ccc2nc(-c3ccc(F)cc3)c(-c3ccc(F)cc3)nc2c1 [Compound I-237, 2,3-bis(4-fluorophenyl)-N-[2-(1H-1,2,4-triazol-1-yl)ethyl]quinoxaline-6-carboxamide]
inhibition at 1 µM (PC3 cells): 96% | IC50 (hNAMPT protein; NAMPT IC50 range class): 2000 to 10000 nM | inhibition at 1 µM (hNAMPT protein; compound concentration 1 μM): 21%

Cn1ccc2c1CN(C(=O)c1ccc3nc(-c4ccc(F)cc4)c(-c4ccc(F)cc4)nc3c1)CC2 [Compound I-303, [2,3-bis(4-fluorophenyl)quinoxalin-6-yl](1-methyl-1,4,5,7-tetrahydro-6H-pyrrolo[2,3-c]pyridin-6-yl)methanone]
inhibition at 1 µM (PC3 cells): 95% | IC50 (hNAMPT protein; NAMPT IC50 range class): 2000 to 10000 nM | inhibition at 1 µM (hNAMPT protein; compound concentration 1 μM): 15%

CN1CCN(Cc2nc3ccc(C(=O)NCCCn4ccnc4)cc3nc2-c2ccccc2)CC1 [Compound I-259, N-[3-(1H-imidazol-1-yl)propyl]-2-[(4-methylpiperazin-1-yl)methyl]-3-phenylquinoxaline-6-carboxamide]
inhibition at 1 µM (PC3 cells): -7% | IC50 (hNAMPT protein; NAMPT IC50 range class): 1000 to 2000 nM | inhibition at 1 µM (hNAMPT protein; compound concentration 1 μM): 44%

CC(C)Oc1nc2ccc(C(=O)NCCCc3c[nH]cn3)cc2nc1-c1ccc(F)cc1 [Compound I-482, 3-(4-Fluorophenyl)-N-[3-(1H-imidazol-4-yl)propyl]-2-isopropoxyquinoxaline-6-carboxamide]
inhibition at 1.667 µM (PC3 cells): 2% | inhibition at 1 µM (hNAMPT protein; [1]): 72% | IC50 (hNAMPT protein; [2]): 100 to 500 nM

O=C(NCCCc1nnc[nH]1)c1ccc2nc(-c3ccc(F)cc3)c(-c3ccc(F)cc3)nc2c1 [Compound I-387, 2,3-bis(4-fluorophenyl)-N-[3-(4H-1,2,4-triazol-3-yl)propyl]quinoxaline-6-carboxamide]
inhibition at 1.667 µM (PC3 cells): 5% | IC50 (hNAMPT protein; NAMPT IC50 range class): 500 to 1000 nM | inhibition at 1 µM (hNAMPT protein; compound concentration 1 μM): 61%

O=C(NCCCc1ncc[nH]1)c1ccc2nc(-c3ccc(F)cc3)c(-c3cc(Cl)cnc3F)nc2c1 [Compound I-410, 3-(5-chloro-2-fluoropyridin-3-yl)-2-(4-fluorophenyl)-N-[3-(1H-imidazol-2-yl)propyl]quinoxaline-6-carboxamide]
inhibition at 1.667 µM (PC3 cells): 2% | inhibition at 1 µM (hNAMPT protein; [1]): 98% | IC50 (hNAMPT protein; [2]): 100 to 500 nM

CCCOc1nc2ccc(C(=O)NCCCc3ncc[nH]3)cc2nc1-c1ccc(F)cc1 [Compound I-371, 3-(4-fluorophenyl)-N-[3-(1H-imidazol-2-yl)propyl]-2-propoxyquinoxaline-6-carboxamide]
inhibition at 1.667 µM (PC3 cells): 3% | IC50 (hNAMPT protein; NAMPT IC50 range class): < 100 nM | inhibition at 1 µM (hNAMPT protein; compound concentration 1 μM): 97%

O=C(NCCCc1ncc[nH]1)c1ccc2nc(-c3ccc(F)cc3)c(-c3cc(F)ccc3Cl)nc2c1 [Compound I-399, 3-(2-chloro-5-fluorophenyl)-2-(4-fluorophenyl)-N-[3-(1H-imidazol-2-yl)propyl]quinoxaline-6-carboxamide]
inhibition at 1.667 µM (PC3 cells): 1% | inhibition at 1 µM (hNAMPT protein; [1]): 95% | IC50 (hNAMPT protein; [2]): < 100 nM

COc1nn(C)c2c1CN(C(=O)c1ccc3nc(-c4ccc(F)cc4)c(-c4ccc(F)cc4)nc3c1)CC2 [Compound I-304, [2,3-bis(4-fluorophenyl)quinoxalin-6-yl](3-methoxy-1-methyl-1,4,6,7-tetrahydro-5H-pyrazolo[4,3-c]pyridin-5-yl)methanone]
inhibition at 1 µM (PC3 cells): 92% | IC50 (hNAMPT protein; NAMPT IC50 range class): 2000 to 10000 nM | inhibition at 1 µM (hNAMPT protein; compound concentration 1 μM): 17%
